Source: patent publication US8371376B2, “Method for pre-treatment of subterranean sites adjacent to water injection wells” (E. I. du Pont de Nemours and Company, priority 2010, dated 2013)

Test: Titration of sand/amine/brine mixture with 1N HCl, amine concentration by GC
Type: physicochemical
Settings: initial pH 8.4, before HCl addition; 380 ppm expected if all dissolved
Procedure: Helium was used as the carrier gas.
38 milligrams (mg) of N N-Dimethyl-1-Dodecanamine (hereafter referred to as “the amine”) was added to 10.210 gr of Pentane. This solution was added to 10.1845 gr of specific sand layers (Oa and Ob) obtained from the Schrader Bluff formation of the Milne Point Unit of the Alaskan North slope. The oil content of the sand was first removed using a mixture of methanol and toluene (50/50, volume/volume) as solvent washes. The solvent mixture was subsequently evaporated off the core sand to produce clean, dry, flowable core sand. This sand was mixed with the amine and pentane solution to produce a slurry. This slurry was thoroughly mixed and the pentane was evaporated off leaving the amine on the sand (hereafter referred to as sand/amine mixture). 100 ml of brine #2 (Table 3) was added to the sand/amine mixture to create the sand/amine/brine mixture. […] The fact that the amine was not detected underlined its strong binding to the sand particles. […] The data underlines the remarkable efficiency of an acid at ionizing and removing the amine from the sand.

CCCCCCCCCCCCN(C)C [N-N-dimethyl-1-dodeanamine, N N-Dimethyl-1-Dodecanamine]
amine conc. in sand/amine/brine mixture: < 1 ppm
